Measurements from US20050143420A1, “Methods and compositions for the treatment and management of hemoglobinopathy and anemia” (priority 2003, published 2005).

Columns and labels:
[1] = system: BM-CD34+ progenitors; assay: Erythroid differentiation of expanded CD34+ cells with SCF and Epo; flow cytometry and cell counts; type: cell-based; conditions: 6 days
Experimental: Differentiation of bone marrow (BM) CD34^+ hematopoietic progenitor cells: BM-CD34^+ progenitors were obtained from Cambrex and cultured in Iscove's MDM with BIT 95000 (serum substitute; StemCell technologies) in the presence of growth factors. During the first 6 days CD34^+ cells were expanded with SCF (100 ng/ml), Flt3-L (100 ng/ml) and IL-3 (20 ng/ml), and then differentiated toward the erythroid lineage by culture in the presence of SCF (50 ng/ml), and Epo (2U or 4U/ml) for 6 days. To study the effect of IMiDs™, CD34^+ progenitors cells were differentiated for a period of 6 days in the presence or absence of 4-(Amino)-2-(2,6-dioxo(3-piperidyl))-isoindoline-1,3-dione or 3-(4-amino-1-oxo-1,3-dihydroisoindol-2-yl)-piperidine-2,6-dione. (FIG. 6)
Flow cytometry: Surface antigen expression was analyzed by flow cytometry (FACScan, Coulter) after 6 days of culture. Cells were processed for double staining (30 min at 4° C.) at day 6 using FITC and PE conjugated monoclonal antibodies (mAbs). Antibodies used were: CD34-PE, CD36-FITC, CD71-FITC and Glycophorin A-PE, all from BD Pharmingen (San Diego, Calif.). After 6 days of culture, cells were washed with phosphate-buffered saline (PBS), fixed with 2% paraformaldehyde, permeabilized with cytopermeafix (BD Pharmingen) and stained with HbF-PE (BD Pharmingen, San Diego, Calif.), Hbε-FITC (Cortex Biochem, San Leandro, Calif.) mAbs and HbA-FITC (Perkin Elmer) and analyzed by flow cytometry (FACScan, Coulter or FCASAria, BD Pharmingen).

[2] = system: BM-CD34+ cells; assay: CD34+ cell differentiation with SCF, Flt3-L, GM-CSF and TNFα; microarray gene expression; type: cell-based
Experimental: (§1) BM-CD34^+ cells were obtained from Cambrex (East Rutherford, N.J.) and cultured in Iscove's MDM with BIT 95000 (StemCell Technologies, UK) in the presence of stem cell factor (SCF), Flt3-L, granulocyte macrophage-colony stimulating factor (GM-CSF) and TNFα for 6 days. To study the effect of 4-(Amino)-2-(2,6-dioxo(3-piperidyl))-isoindoline-1,3-dione on the generation of dendritic cells, CD34^+ progenitor cells were cultured with or without 4-(Amino)-2-(2,6-dioxo(3-piperidyl))-isoindoline-1,3-dione for a period of 6 days. Phenotypic characterization of the cells for erythroid markers (CD36, CD71, glycophorin A and fetal hemoglobin) was established by flow cytometry after six days of culture. Gene expression was monitored by microarray analysis at day 1, day 3 and day 6 of CD34^+ differentiation (FIG. 1).
RNA purification and microarray analysis. Total RNA was isolated from CD34^+ cells using RNAeasy (Qiagen). Affymetrix U133A gene chips were used for gene expression analysis. Briefly, double-stranded cDNA was synthesized using 5 μg of total RNA. Biotin-labeled cRNA was synthesized using MessageAmp aRNA kit (Ambion), 15 μg of cRNA was fragmented and hybridized to each array. The above procedures were done twice for each RNA sample to obtain replicate biotin-labeled probes. The results from the replicate chips were averaged for calculation of the fold differences.

[3] = system: STAT5; assay: Epo-induced STAT5 phosphorylation in UT-7 cells; type: cell-based, human; conditions: 10 μM, 45 min pre-incubation, Epo 10 U/ml for 10 minutes
Source text: To further characterize the synergy of Epo and IMiDs™ on erythroid cells, we have performed signaling experiments in a UT-7 cell line, in particular, to determine the effect if IMiDs on the expression of STAT5, which is known to be activated upon the binding Epo to the erythropoietin receptor (EpoR). UT-7 is a human leukemia cell line absolutely dependent upon erythropoietin for proliferation, and was isolated from a patient with acute myeloid leukemia (AML M7). The level of EpoR expression in these cells is around 60%.
To study the role of IMiDs™ in Epo signaling, we stimulated UT-7 cells with Epo in the presence or absence of 4-(Amino)-2-(2,6-dioxo(3-piperidyl))-isoindoline- 1,3-dione as follows. UT-7 cells were expended in RPMI medium with 10% FBS and GM-CSF (5 ng/ml). The cells were serum and growth factor starved overnight, then pre-incubated for 45 minutes with 10 μM of 4-(Amino)-2-(2,6-dioxo(3-piperidyl))-isoindoline-1,3-dione or DMSO control, and stimulated with Epo (10 U/ml) for 10 minutes. 4-(Amino)-2-(2,6-dioxo(3-piperidyl))-isoindoline-1,3-dione increased Epo-induced STAT5 (Tyr694) phosphorylation by 2 fold (FIG. 12). This effect was detected within 10 minutes of stimulation with Epo.

[4] = system: BM-CD34+ cells; assay: CD34+ cell differentiation with SCF, Flt3-L, GM-CSF and TNFα; flow cytometry of erythroid markers; type: cell-based; conditions: 0.01-100 μM, six days of culture
Experimental: as §1

[5] = system: CD34+ progenitor cells; assay: Fetal hemoglobin induction in CD34+ cells with SCF and Epo, compared or combined with hydroxyurea and 5-azacytidine; type: cell-based; conditions: for fetal hemoglobin expression: flow cytometry
Experimental: FIG. 10 depicts the increase in expression of fetal hemoglobin due to 4-(Amino)-2-(2,6-dioxo(3-piperidyl))-isoindoline-1,3-dione over that induced by hydroxyurea or 5-azacytidine. Cells were cultured for six days in the presence of SCF (50 ng/ml) and Epo (2 U/ml), and either DMSO (control), 4-(Amino)-2-(2,6-dioxo(3-piperidyl))-isoindoline-1,3-dione (0.1, 1, 10 μM), 5-azacytidine (0.1, 1 μM; toxic at 10 μM) or hydroxyurea (0.1, 1, 10 μM).
As previously, CD34^+ progenitor cells were first expanded with a combination of growth factors (SCF, Flt3-L and IL-3) for 6 days, and erythroid differentiation was then induced with SCF and Epo for 6 days. During the erythroid differentiation period CD34^+ cells were cultured in the presence or absence of IMiDs™, alone or in combination with either hydroxyurea and 5-azacytidine, in order to compare the effect of IMiDs™ to these two known inducers of fetal hemoglobin synthesis. On day 6 of differentiation, the hemoglobin content of the cells was measured by flow cytometry. […] The induction of fetal hemoglobin production was, however, more pronounced with IMiD in comparison to hydroxyurea or 5-azacytidine, with a 10 fold induction in the presence of 10 μM of 4-(Amino)-2-(2,6-dioxo(3-piperidyl))-isoindoline-1,3-dione.

[6] = Cardiovascular and respiratory function in anesthetized dogs; type: in vivo, Beagle dogs
Experimental: The effects of 3-(4-amino-1-oxo-1,3-dihydro-isoindol-2-yl)-piperidine-2,6-dione on cardiovascular and respiratory function are investigated in anesthetized dogs. Two groups of Beagle dogs (2/sex/group) are used. One group receives three doses of vehicle only and the other receives three ascending doses of 3-(4-amino-1-oxo-1,3-dihydro-isoindol-2-yl)-piperidine-2,6-dione (2, 10, and 20 mg/kg). In all cases, doses of 3-(4-amino-1-oxo-1,3-dihydro-isoindol-2-yl)-piperidine-2,6-dione or vehicle are successively administered via infusion through the jugular vein separated by intervals of at least 30 minutes.

With `Nc1cccc2c1C(=O)N(C1CCC(=O)NC1=O)C2=O` (stereo not shown) [4-(Amino)-2-(2,6-dioxo(3-piperidyl))-isoindoline-1,3-dione] the “adult hemoglobin (HbA) expression” value [1] was “decrease”, the “induction of hemoglobin F in erythroid precursors” value [1] was “potent inducers of hemoglobin F” and the “cells expressing fetal hemoglobin” value ([1]; 0.001-10 μM, vs DMSO) was “increase”. For the same compound, the “expression of glycophorin A” value ([1]; FACS) was “slight decrease”, the “expression of genes encoding glycophorin B, rhesus blood group associated glycoprotein, Kell blood group precursor, EDRF/AHSP, erythroid Kruppel-like transcription factor” value ([2]; SCF, Flt3-L, GM-CSF and TNFα) was “upregulated” and the “gene expression profile of erythroid-specific genes” value ([2]; SCF, Flt3-L, GM-CSF and TNFα) was “upregulated”. For the same compound, the “increase of embryonic hemoglobin ε gene expression” value ([2]; day 6 of CD34+ differentiation, vs DMSO) was 18 fold, the “increase of Epo-induced STAT5 (Tyr694) phosphorylation” value [3] was 2 fold and the “expression of fetal hemoglobin” value [4] was “increased in a dose-dependent manner”. The “expression of glycophorin A” value [4] was “increased in a dose-dependent manner”, the “induction of fetal hemoglobin production” value ([5]; 10 μM, day 6 of differentiation) was 10 fold and the “fetal hemoglobin expression in combination with hydroxyurea” value ([5]; combination with hydroxyurea, six days, SCF and Epo) was “striking synergy”.
For `NC(=O)NO` [Hydroxyurea, hydroxyurea, reference compound], the fetal hemoglobin expression ([5]; day 6 of differentiation) was “increased fetal hemoglobin expression”.
For `Nc1ncn([C@@H]2O[C@H](CO)[C@@H](O)[C@H]2O)c(=O)n1` [5-azacytidine, reference compound], the “toxicity to cultured CD34+ cells” value ([5]; 10 μM) was “toxic” and the fetal hemoglobin expression ([5]; day 6 of differentiation) was “increased fetal hemoglobin expression”.
In the case of `Nc1cccc2c1CN(C1CCC(=O)NC1=O)C2=O` (stereo not shown) [3-(4-amino-1-oxo-1,3-dihydroisoindol-2-yl)-piperidine-2,6-dione], the “induction of hemoglobin F in erythroid precursors” value [1] is reported as “potent inducers of hemoglobin F”, the “cardiovascular and respiratory changes” value ([6]; 2, 10 and 20 mg/kg by jugular vein infusion, vs vehicle) is reported as “minimal at all doses” and the “deviations in femoral blood flow, respiratory parameters, and Qtc interval” value ([6]; common to control and treated groups) is reported as “not considered treatment-related”. For the same compound, the “duration of the arterial blood pressure increase” value ([6]; low dose, not seen at higher doses) was “approximately 15 minutes”, the arterial blood pressure ([6]; low dose, small increase from 94 mmHg) was 101 mmHg and the “expression of fetal hemoglobin” value [4] was “increased in a dose-dependent manner”. The “expression of glycophorin A” value [4] was “increased in a dose-dependent manner”.
